From EP0358766A1, “METHOD OF STERILIZING PLANT ANTHERS” (VSESOJUZNY NAUCHNO-ISSLEDOVATELSKY INST. SELSKOKHOZYAISTV. …, priority 1988, dated 1989)

Key:
diploidem Roggen Chulpan = assay: Field test of gametocidal activity, diploid rye Chulpan; format: in vivo; conditions: for Kornzahl der Ähre bei freier Bestäubung / Kornzahl der Ähre im Isolator / Prozentsatz des Ansetzens von Samen bei freier Bestäubung: Chulpan, period V, 1% aqueous emulsion, 10 kg/ha; for Prozentsatz des Ansetzens von Samen bei freier Bestäubung: control = 100; for pest or weed control at 10000 g/ha: read-out: Prozentsatz der Sterilität
Excerpt: (§1) Die gametozide Aktivität der erfindungsgemäßen Sterilisationsmittel war in Feldversuchen in verschiedenen bodenklimatischen Zonen mit Teilstücken von 10 m^2 Größe in dreibis viermaliger Wiederholung festgestellt. Jedes Sterilisationsmittel wurde mindenstens 5 Jahre lang geprüft.
(§2) Die Entwicklung der Perioden der Organogenese wird zytologisch überwacht. Die Behandlung von Pflanzen mit dem Sterilisationsmittel erfolgt am Anfang der fünften Periode der Organogenese nach Kupermann.
(§3) Mit dem Ährenschieben verwirklicht man die Isolierung von Hauptähren und anderen Stockwerken in Pergametbeuteln. Bei Weizen und Tritikale werden Einzelisolatoren benutzt. Bei Roggen schließt man je 1 Ähre von […] verschiedenen nebeneinander befindlichen Pflanzen unter einen gemeinsamen Isolator ein. Bei Hirse wird jede Rispe getrennt isoliert. Der Sterilitätsprozentsatz (X) für Weizen, Roggen, Tritikale und Hirse wird nach der Formel [formula] ermittelt.
(§4) Die Kornzahl in nicht isolierten Ähren von Kontrollpflanzen wird bedingt für 100 % Ansetzen bei freier Bestäubung angenommen.
(§5) Um zuverlässige Angaben zu erhalten, verwendet man 20 bis 25 Isolatoren je Wiederholung für Weizen und Tritikale, 10 bis 15 Isolatoren jeder Wiederholung für Roggen und Hirse.
Pflanzen von diploidem Roggen Chulpan werden in der V.Periode der Organogenese mit einer 1%igen wäßrigen Emulsion von 1,1,3-Tribrompropan, 1,1,3-Tribrom-4-chlorbutan, 1,1,2,3-Tetrabrompropan, 1,2,3-Tribrompropan, 1,2-Dibrompropan, 1,1,3-Tribrom-3-ohlorpropan, 1,2-Dibrom-3--chlorpropan, 1,3-Dibrompropan, 1,1,1,3-Tetrabromheptan, 1,1,3-Tribromheptan bzw. 1,2-Dibromheptan behandelt. Die Emulsion enthält 0,5 Masse% C12-C14-Kalziumalkylbenzolsul- fonat und 0,01 Masse% Dimethylsulfoxid. Der Verbrauch an Präparat beträgt 10 kg/ha. Die Prüfergebnisse sind in der Tabelle 11 angegeben. Die gleichen Ergebnisse sind bei der Behandlung von diploidem Roggen Chulpan in der VI. Periode der Organogenese erhalten.

[1] = test system: Winterweizens Sorte Mironowskaya 808; assay: Field test of gametocidal activity (anther sterilisation), winter wheat Mironowskaya 808; format: in vivo, Weizen; conditions: read-out: Prozentsatz der Sterilität %
[2] = test system: Winterweizens Sorte Mironowskaya 808; assay: as above; format: in vivo, Weizen; conditions: Mironowskaya 808, period V of organogenesis, 2% aqueous emulsion, 20 kg/ha in 1000 l water; for Prozentsatz des Ansetzens von Samen bei freier Bestäubung: control = 100
Excerpt: as §1, §2, §3, §4, §5
Pflanzen des Winterweizens Sorte Mironowskaya 808 werden in der V.Periode der Organogenese durch Zerstäubung der 2%igen wäßrigen Emulsion von 1,1,3-Tribrompropan mit Hilfe einer Rückenspritze behandelt.
Als Emulgierungsmittel setzt man 0,5 Masse% C12-C14--Kalziumalkylbenzolsulphonat zu. Als Adjuvans enthält die Emulsion 0,01 Masse% Dimethylsulfoxid. Der Verbrauch an Präparat beträgt 20 kg/ha bei 1000 Liter Wasserdurchsatz. Als Kontrolle dienen Pflanzen, behandelt mit einem Verdünner ohne Sterilisationsmittel. Die Ergebnisse sind in der Tabelle 1 angegeben.
Der ProzeB wird analog zu dem in Beispiel 1 beschriebenen durchgeführt. Als Sterilisationsmittel verwendet man eine 2%ige waßrige Emulsion von 1,1,3-Tribrom-4-chlorbutan, 1,1,2,3-Tetrabrompropan. Die Prüfergebnisse sind in der Tabelle 1 angegeben.
Der Prozeß wird analog zu dem in Beispiel 1 beschriebenen durchgeführt, nur daß man 1%ige wäßrige Emulsion von 1,2,3-Tribrompropan, 1,2-Dibrompropan, 1,1,3-Tribrom-3--chlorpropan, 1,2-Dibrom-3-chlorpropan, 1,3-Dibrompropan, 1,1,1,3-Tetrabromheptan, 1,1,3-Tribromheptan, 1,2-Dibromheptan verwendet. Die Präparatdosis beträgt 10 kg ha. Die Prüfergebnisse sind in der Tabelle 1 angegeben. Die gleichen Ergebnisse sind bei der Behandlung des Weizens Sorte Mironowskaya 808 in der VI. Periode der Organogenese erhalten.

[3] = test system: diploidem Roggen Voskhod 2; assay: Field test of gametocidal activity, diploid rye Voskhod 2; format: in vivo; conditions: period V, 1% aqueous emulsion, 10 kg/ha in 1000 l water; for Prozentsatz des Ansetzens von Samen bei freier Bestäubung: control = 100
Excerpt: as §1, §2, §3, §4, §5
Pflanzen von diploidem Roggen Voskhod 2 werden in der V. Periode der Organogenese mit einer 1%igen wäßrigen Emulsion von 1,1,3-Tribrompropan, 1,1,3-Tribrom-4-chlorbutan bzw. 1,1,2,3-Tetrabrompropan behandelt. Die Emulsion enthält 0,5 Masse% C12-C14-Kalziumalkylbenzolsulfonat und 0,01 Masse% Dimethylformamid. Der Verbrauch an Präparat beträgt 10 kg/ha bei 1000 1 Wasserdurchsatz. Die Prüfergebnisse sind in der Tabelle 14 angegeben. Die gleichen Ergebnisse sind bei der Behandlung von diploidem Roggen Voskhod 2 in der VI. Periode der Organogenese erhalten..

[4] = test system: Sommerweizens Sorte Moskowskaya 35; assay: Field test of gametocidal activity, spring wheat Moskowskaya 35; format: in vivo, Weizen; conditions: for Kornzahl der Ähre bei freier Bestäubung / Kornzahl der Ähre im Isolator / Prozentsatz des Ansetzens von Samen bei freier Bestäubung: Moskowskaya 35, period V, 1% aqueous emulsion, 6 kg/ha in 600 l water; for Prozentsatz des Ansetzens von Samen bei freier Bestäubung: control = 100; for pest or weed control at 6000 g/ha: read-out: Prozentsatz der Sterilität
Excerpt: as §1, §2, §3, §4, §5
Pflanzen des Sommerweizens Sorte Moskowskaya 35 werden in der V. Periode der Organogenese (nach Kupermann) mit einer l%igen wäßrigen Emulsion von 1,1,3-Tribrompropan, […], 1,1,2,3-Tetrabrompropan, 1,2,3-Tribrompropan, 1,2-Dibrompropan, 1,1,3-Tribrom-3-chlorpropan, 1,2-Dibrom-3-chlorpropan, 1,3-Dibrompropan, 1,1,1,3-Tetrabromheptan bzw. 1,1,3-Tribromheptan behandelt. Die Emulsion enthält als Emulgierungsmittel 0,5 Masse% C12-C14-Kalzium- alkylbenzolsulfonat und als Adjuvans 0,01 Masse% Dimethylformamid. Der Verbrauch an Präparat beträgt 6 kg/ha bei 600 1 Wasserdurchsatz. Als Kontrolle dienen Pflanzen, behandelt mit dem Verdünner ohne Sterilisationsmittel.
Die Prüfergebnisse sind in der Tabelle 2 angegeben. Die gleichen Ergebnisse sind bei der Behandlung des Sommerweizens Sorte Moskowskaya 35 in der VI.Periode der Organogenese erhalten.

[5] = test system: tetraploidem Roggen Belta; assay: Field test of gametocidal activity, tetraploid rye Belta; format: in vivo; conditions: period V, 1% aqueous emulsion, 6 kg/ha in 600 l water; for Prozentsatz des Ansetzens von Samen bei freier Bestäubung: control = 100
Excerpt: as §1, §2, §3, §4, §5
Pflanzen von tetraploidem Roggen Belta werden in der V.Periode der Organogenese (nach Kupermann) mit einer 1%igen wäßrigen Emulsion von 1,1,3-Tribrompropan, 1,1,3--Tribrom-4-chlorbutan, 1,1,2,3-Tetrabrompropan, 1,2,3-Tribrompropan, 1,1,3-Tribrom-3-chlorpropan bzw. 1,2-Dibrom--3-chlorpropan behandelt.
Die Emulsion enthält 0,5 Masse% C12-C14-Kalziumalk^yl-benzolsulfonat und 0,01 Masse% Dimethylsulfoxid. Der Verbrauch an Präparat beträgt 6 kg/ha bei 600 1 Wasserdurchsatz.Die Prüfergebnisse sind in der Tabelle 7 angegeben. Die gleichen Ergebnisse sind bei der Behandlung von tetraploidem Roggen Belta in der VI. Periode der Organogenese erhalten.

Structure (SMILES) | Kornzahl der Ähre bei freier Bestäubung (diploidem Roggen Chulpan) | Kornzahl der Ähre im Isolator (diploidem Roggen Chulpan) | Prozentsatz des Ansetzens von Samen bei freier Bestäubung (diploidem Roggen Chulpan) | pest or weed control at 10000 g/ha (diploidem Roggen Chulpan) [%] | pest or weed control at 1 %, 20000 g/ha [1] [%] | Kornzahl der Ähre bei freier Bestäubung [2] | Kornzahl der Ähre im Isolator [2] | Prozentsatz des Ansetzens von Samen bei freier Bestäubung [2] | Kornzahl der Ähre bei freier Bestäubung [3] | Kornzahl der Ähre unter Isolator [3] | Prozentsatz der Sterilität [3] | Prozentsatz des Ansetzens von Samen bei freier Bestäubung [3] | Kornzahl der Ähre bei freier Bestäubung [4] | Kornzahl der Ähre im Isolator [4] | Prozentsatz des Ansetzens von Samen bei freier Bestäubung [4] | pest or weed control at 6000 g/ha [4] [%] | Kornzahl der Ähre bei freier Bestäubung [5] | Kornzahl der Ähre im Isolator [5] | Prozentsatz der Sterilität [5] | Prozentsatz des Ansetzens von Samen bei freier Bestäubung [5]
BrCC(Br)C(Br)Br (stereo not shown) [Beispiel 3, 1,1,2,3-Tetrabrompropan] | 44,3 | 0,4 | 88,4% | 99.2 | 97.3 | 35,1 | 1,0 | 94,1% | 45,7 | 0,2 | 99,6% | 83,7% | 31,8 | 0,3 | 83,2% | 99.1 | 40,1 | 0,6 | 98,5% | 90,7%
ClCC(Br)CC(Br)Br (stereo not shown) [Beispiel 2, 1,1,3-Tribrom-4-chlorbutan] | 47,8 | 1,0 | 95,4% | 98 | 97.3 | 41,3 | 1,1 | 86,0% | 52,4 | 1,0 | 97,2% | 96,0% | 36,5 | 0,6 | 95,5% | 99.2 | 42,6 | 0,8 | 98,0% | 96,4%
